From publication doi:10.1101/2021.04.08.439011v1 (biorxiv, 2021)
Where two headings read alike, the source gives them in different places.

Key:
ADCK3 = ADCK3 (Homo sapiens, UniProt Q8NI60); details: 1 µM; binder
AMPK-alpha1 = AMPK-alpha1 (Homo sapiens, UniProt Q13131); details: 1 µM; binder
AURKB = AURKB (Homo sapiens, UniProt Q96GD4); details: 1 µM; binder
BUB1 = BUB1 (Homo sapiens, UniProt O43683); details: 1 µM; binder
CLK4 = CLK4 (Homo sapiens, UniProt Q9HAZ1); details: 1 µM; binder
CSNK1D = CSNK1D (Homo sapiens, UniProt P48730); details: 1 µM; binder
DLK = DLK (Homo sapiens, UniProt Q12852); details: 1 µM; binder
EIF2AK1 = EIF2AK1 (Homo sapiens, UniProt Q9BQI3); details: 1 µM; binder
FLT3(ITD) = FLT3(ITD) (Homo sapiens, UniProt P36888); details: 1 µM; binder
GRK7 = GRK7 (Homo sapiens, UniProt Q8WTQ7); details: 1 µM; binder
GRK7, sequence (Q8WTQ7 whole entry): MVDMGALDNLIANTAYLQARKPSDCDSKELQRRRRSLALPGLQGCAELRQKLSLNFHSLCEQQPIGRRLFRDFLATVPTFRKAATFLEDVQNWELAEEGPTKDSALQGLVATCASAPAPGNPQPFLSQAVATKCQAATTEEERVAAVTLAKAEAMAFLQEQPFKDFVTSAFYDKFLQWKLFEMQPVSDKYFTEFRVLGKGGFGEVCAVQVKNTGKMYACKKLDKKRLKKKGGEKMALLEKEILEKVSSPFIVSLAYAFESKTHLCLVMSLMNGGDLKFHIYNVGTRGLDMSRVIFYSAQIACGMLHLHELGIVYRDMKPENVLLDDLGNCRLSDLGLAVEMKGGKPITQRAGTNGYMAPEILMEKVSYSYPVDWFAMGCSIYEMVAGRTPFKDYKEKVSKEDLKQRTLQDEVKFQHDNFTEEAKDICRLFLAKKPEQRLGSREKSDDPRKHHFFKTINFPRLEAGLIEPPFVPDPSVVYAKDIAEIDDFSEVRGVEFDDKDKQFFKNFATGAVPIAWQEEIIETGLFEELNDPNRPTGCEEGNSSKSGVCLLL

HASPIN = HASPIN (Homo sapiens, UniProt Q8TF76); details: 1 µM; binder
HIPK4 = HIPK4 (Homo sapiens, UniProt Q8NE63); details: 1 µM; binder
HIPK4, sequence (Q8NE63 whole entry): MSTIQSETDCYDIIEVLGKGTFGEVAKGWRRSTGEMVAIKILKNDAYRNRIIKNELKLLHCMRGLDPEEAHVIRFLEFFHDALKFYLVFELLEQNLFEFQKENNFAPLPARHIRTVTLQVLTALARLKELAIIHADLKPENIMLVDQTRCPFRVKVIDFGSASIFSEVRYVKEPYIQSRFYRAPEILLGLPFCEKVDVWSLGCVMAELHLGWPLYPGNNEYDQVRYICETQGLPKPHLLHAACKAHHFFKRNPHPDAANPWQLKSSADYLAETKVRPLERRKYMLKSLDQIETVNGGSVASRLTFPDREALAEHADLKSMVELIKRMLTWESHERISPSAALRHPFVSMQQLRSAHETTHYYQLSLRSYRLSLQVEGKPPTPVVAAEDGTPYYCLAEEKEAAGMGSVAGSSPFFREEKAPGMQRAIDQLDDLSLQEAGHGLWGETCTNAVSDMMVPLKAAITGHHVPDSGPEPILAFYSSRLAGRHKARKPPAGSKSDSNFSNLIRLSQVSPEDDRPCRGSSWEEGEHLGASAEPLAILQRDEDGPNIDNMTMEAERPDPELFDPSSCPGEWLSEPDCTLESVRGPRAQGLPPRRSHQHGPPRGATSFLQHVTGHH

IKK-alpha = IKK-alpha (Homo sapiens, UniProt O15111); details: 1 µM; binder
KIT-autoinhibited = KIT-autoinhibited (Homo sapiens, UniProt P10721); details: 1 µM; binder
LATS1 = LATS1 (Homo sapiens, UniProt O95835); details: 1 µM; binder
LIMK1 = LIMK1 (Homo sapiens, UniProt P53667); details: 1 µM; binder
MARK1 = MARK1 (Homo sapiens, UniProt Q9P0L2); details: 1 µM; binder
MARK1, sequence (Q9P0L2 whole entry): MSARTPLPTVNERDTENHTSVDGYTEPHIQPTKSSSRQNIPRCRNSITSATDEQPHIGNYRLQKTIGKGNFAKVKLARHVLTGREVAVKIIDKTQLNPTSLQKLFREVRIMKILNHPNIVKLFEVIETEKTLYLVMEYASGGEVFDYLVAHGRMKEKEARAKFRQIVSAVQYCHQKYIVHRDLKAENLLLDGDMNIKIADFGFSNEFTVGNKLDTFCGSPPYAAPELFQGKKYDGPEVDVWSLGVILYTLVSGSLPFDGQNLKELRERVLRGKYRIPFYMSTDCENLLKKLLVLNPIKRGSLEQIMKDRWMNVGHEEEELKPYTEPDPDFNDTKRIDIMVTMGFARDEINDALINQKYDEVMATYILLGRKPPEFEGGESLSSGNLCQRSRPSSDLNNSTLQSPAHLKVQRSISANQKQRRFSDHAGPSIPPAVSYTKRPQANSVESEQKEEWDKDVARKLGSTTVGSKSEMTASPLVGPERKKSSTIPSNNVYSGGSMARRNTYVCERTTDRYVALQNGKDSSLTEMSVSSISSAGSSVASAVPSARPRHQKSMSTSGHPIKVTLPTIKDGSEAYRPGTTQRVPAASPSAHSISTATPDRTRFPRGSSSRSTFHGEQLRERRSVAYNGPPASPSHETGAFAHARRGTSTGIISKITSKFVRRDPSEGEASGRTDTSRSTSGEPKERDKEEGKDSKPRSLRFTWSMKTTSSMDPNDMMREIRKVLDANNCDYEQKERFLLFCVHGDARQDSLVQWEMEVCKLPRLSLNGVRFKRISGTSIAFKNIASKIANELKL

MKNK1 = MKNK1 (Homo sapiens, UniProt Q9BUB5); details: 1 µM; binder
NEK11 = NEK11 (Homo sapiens, UniProt Q8NG66); details: 1 µM; binder
NEK11, sequence (Q8NG66 whole entry): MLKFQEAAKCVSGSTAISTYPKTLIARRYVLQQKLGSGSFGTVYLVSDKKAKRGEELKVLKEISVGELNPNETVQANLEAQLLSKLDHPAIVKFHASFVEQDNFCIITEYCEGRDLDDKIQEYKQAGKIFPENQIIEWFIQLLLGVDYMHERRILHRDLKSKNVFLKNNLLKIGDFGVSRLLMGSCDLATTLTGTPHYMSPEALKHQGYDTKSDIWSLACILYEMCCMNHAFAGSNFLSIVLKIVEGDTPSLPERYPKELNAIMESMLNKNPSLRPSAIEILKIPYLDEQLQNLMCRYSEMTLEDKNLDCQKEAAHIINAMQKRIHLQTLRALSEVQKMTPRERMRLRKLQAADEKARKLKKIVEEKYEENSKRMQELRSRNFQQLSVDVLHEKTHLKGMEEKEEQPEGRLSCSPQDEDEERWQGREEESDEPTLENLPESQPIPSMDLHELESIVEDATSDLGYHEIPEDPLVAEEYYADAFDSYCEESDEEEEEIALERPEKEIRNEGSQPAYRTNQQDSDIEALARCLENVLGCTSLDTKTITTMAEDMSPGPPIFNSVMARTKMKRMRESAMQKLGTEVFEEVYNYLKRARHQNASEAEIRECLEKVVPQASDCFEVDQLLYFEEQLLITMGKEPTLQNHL

NEK2 = NEK2 (Homo sapiens, UniProt P51955); details: 1 µM; binder
PFTK1 = PFTK1 (Homo sapiens, UniProt O94921); details: 1 µM; binder
PLK3 = PLK3 (Homo sapiens, UniProt Q9H4B4); details: 1 µM; binder
PRKX = PRKX (Homo sapiens, UniProt P51817); details: 1 µM; binder
RET(V804M) = RET(V804M) (Homo sapiens, UniProt P07949, V804M); details: 1 µM; binder
RET(V804M), sequence (P07949 whole entry V804M): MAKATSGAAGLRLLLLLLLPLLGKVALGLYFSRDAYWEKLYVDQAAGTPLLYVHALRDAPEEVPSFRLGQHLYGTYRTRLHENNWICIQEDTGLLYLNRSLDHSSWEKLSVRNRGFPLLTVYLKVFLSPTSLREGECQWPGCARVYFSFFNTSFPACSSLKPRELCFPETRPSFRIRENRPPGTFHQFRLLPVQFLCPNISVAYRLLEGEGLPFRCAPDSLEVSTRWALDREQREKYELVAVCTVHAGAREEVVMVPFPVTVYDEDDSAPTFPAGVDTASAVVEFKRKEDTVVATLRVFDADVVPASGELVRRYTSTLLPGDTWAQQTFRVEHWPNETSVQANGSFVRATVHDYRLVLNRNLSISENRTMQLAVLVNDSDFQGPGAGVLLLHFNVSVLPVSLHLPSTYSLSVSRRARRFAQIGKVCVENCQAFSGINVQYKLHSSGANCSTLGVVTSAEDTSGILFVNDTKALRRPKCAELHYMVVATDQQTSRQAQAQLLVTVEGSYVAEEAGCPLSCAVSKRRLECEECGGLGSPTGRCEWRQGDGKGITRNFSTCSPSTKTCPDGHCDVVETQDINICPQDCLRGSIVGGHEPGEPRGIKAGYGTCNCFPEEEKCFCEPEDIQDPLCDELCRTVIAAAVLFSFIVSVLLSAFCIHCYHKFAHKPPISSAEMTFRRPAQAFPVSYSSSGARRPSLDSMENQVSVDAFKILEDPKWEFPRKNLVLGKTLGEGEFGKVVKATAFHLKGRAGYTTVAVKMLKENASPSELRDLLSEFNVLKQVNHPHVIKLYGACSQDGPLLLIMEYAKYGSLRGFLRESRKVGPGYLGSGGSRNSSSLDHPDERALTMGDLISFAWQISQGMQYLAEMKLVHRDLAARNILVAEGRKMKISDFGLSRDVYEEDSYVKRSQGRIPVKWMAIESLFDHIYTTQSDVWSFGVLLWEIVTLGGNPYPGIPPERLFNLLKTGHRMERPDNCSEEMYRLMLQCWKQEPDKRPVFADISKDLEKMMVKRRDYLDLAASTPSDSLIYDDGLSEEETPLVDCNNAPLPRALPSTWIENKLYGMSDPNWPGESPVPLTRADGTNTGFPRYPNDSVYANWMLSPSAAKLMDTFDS

RPS6KA6 = RPS6KA6 (Homo sapiens, UniProt Q9UK32); details: binder
RPS6KA6, sequence (Q9UK32 whole entry): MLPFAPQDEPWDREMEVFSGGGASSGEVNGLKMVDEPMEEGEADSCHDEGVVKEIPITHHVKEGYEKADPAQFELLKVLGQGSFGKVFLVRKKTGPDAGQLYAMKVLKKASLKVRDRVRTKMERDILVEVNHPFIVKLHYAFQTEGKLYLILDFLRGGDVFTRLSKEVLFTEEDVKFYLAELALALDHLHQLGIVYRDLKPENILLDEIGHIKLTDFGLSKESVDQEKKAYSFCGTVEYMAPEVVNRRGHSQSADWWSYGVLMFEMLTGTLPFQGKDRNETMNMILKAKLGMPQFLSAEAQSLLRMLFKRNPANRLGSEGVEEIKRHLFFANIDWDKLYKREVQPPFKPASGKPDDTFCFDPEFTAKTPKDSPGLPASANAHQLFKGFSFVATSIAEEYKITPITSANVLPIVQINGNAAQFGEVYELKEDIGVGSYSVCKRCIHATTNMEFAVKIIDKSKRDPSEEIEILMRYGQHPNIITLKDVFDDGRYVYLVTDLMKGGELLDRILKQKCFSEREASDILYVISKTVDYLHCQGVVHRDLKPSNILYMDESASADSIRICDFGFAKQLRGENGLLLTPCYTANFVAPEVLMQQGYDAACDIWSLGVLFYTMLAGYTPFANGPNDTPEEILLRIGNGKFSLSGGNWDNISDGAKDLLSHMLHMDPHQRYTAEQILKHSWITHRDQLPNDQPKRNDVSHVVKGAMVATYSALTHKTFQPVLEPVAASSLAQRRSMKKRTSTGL

SRPK3 = SRPK3 (Homo sapiens, UniProt Q9UPE1); details: 1 µM; binder
SRPK3, sequence (Q9UPE1 whole entry): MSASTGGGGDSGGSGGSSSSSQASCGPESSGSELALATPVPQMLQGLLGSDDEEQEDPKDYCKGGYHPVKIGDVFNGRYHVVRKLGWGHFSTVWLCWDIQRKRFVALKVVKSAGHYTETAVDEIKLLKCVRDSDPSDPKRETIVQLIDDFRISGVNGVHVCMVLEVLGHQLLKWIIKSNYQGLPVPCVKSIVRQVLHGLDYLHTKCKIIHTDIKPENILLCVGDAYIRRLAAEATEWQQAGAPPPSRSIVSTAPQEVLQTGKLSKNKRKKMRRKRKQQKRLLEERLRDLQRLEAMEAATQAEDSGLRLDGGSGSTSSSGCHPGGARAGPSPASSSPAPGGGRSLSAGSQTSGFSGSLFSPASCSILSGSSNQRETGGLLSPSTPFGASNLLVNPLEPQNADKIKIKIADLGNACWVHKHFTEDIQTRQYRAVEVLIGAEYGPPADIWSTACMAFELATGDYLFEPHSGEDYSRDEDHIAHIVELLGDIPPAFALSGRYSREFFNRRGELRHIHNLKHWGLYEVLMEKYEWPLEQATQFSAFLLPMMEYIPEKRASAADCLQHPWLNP

TGFBR1 = TGFBR1 (Homo sapiens, UniProt P36897); details: 1 µM; binder
TLK1 = TLK1 (Homo sapiens, UniProt Q9UKI8); details: 1 µM; binder
TLK2 = TLK2 (Homo sapiens, UniProt Q86UE8); details: 1 µM; binder
WNK4 = WNK4 (Homo sapiens, UniProt Q96J92); details: 1 µM; binder

## CNc1ncc2cc(-c3ccc(-c4cccc(C)n4)cc3Cl)c(=O)n(C[C@H]3OC[C@H](N)CO3)c2n1 [compound 6, G-5555]
ADCK3
  Percent Control: 100%
AMPK-alpha1
  Percent Control: 40%
AURKB
  Percent Control: 23%
BUB1
  Percent Control: 89%
CLK4
  Percent Control: 100%
CSNK1D
  Percent Control: 100%
DLK
  Percent Control: 100%
EIF2AK1
  Percent Control: 100%
FLT3(ITD)
  Percent Control: 100%
GRK7
  Percent Control: 89%
HASPIN
  Percent Control: 100%
HIPK4
  Percent Control: 100%
IKK-alpha
  Percent Control: 98%
KIT-autoinhibited
  Percent Control: 81%
LATS1
  Percent Control: 41%
LIMK1
  Percent Control: 59%
MARK1
  Percent Control: 68%
MKNK1
  Percent Control: 100%
NEK11
  Percent Control: 100%
NEK2
  Percent Control: 60%
PFTK1
  Percent Control: 100%
PLK3
  Percent Control: 93%
PRKX
  Percent Control: 100%
RET(V804M)
  Percent Control: 100%
RPS6KA6; Kin.Dom.1 N-terminal
  Percent Control: 95%
RPS6KA6; Kin.Dom.2 C-terminal, 1 µM
  Percent Control: 92%
SRPK3
  Percent Control: 100%
TGFBR1
  Percent Control: 100%
TLK1
  Percent Control: 100%
TLK2
  Percent Control: 100%
WNK4
  Percent Control: 18%
